This test concerns P388 leukemia ip, CD2F1 mice, survival T/C. Put plainly: NCI In Vivo Anticancer Drug Screen. Data for tumor model P388 Leukemia (intraperitoneal) in CD2F1 (CDF1) mice. The note with it: endpoint: median survival time, higher = longer survival. In outline:
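Mice carrying the transplanted tumor received test compound or vehicle. Survival was recorded in each group, and the value is the treated-group measurement divided by that of the vehicle-treated control group.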

Where [1] appears, read: dose: 50.0 mg/kg/injection, schedule: Q01DX009 (ip), vehicle: saline.
[2] abbreviates: dose: 100.0 mg/kg/injection, schedule: Q01DX009 (ip), vehicle: saline.
Setting [3] is: dose: 200.0 mg/kg/injection, schedule: Q01DX009 (ip), vehicle: saline.
Where [4] appears, read: dose: 50.0 mg/kg/injection, schedule: Q01DX005 (ip), vehicle: Klucel (hydroxypropylcellulose) (HPC).
[5] abbreviates: dose: 6.25 mg/kg/injection, schedule: Q01DX009 (ip), vehicle: Klucel (hydroxypropylcellulose) (HPC).
Setting [6] is: dose: 12.5 mg/kg/injection, schedule: Q01DX009 (ip), vehicle: Klucel (hydroxypropylcellulose) (HPC).
Setting [7] is: dose: 25.0 mg/kg/injection, schedule: Q01DX009 (ip), vehicle: Klucel (hydroxypropylcellulose) (HPC).
Setting [8] is: dose: 50.0 mg/kg/injection, schedule: Q01DX009 (ip), vehicle: Klucel (hydroxypropylcellulose) (HPC).
[9] abbreviates: dose: 25.0 mg/kg/injection, schedule: Q01DX009 (ip), vehicle: saline.
Setting [10] is: dose: 6.25 mg/kg/injection, schedule: Q01DX009 (ip), vehicle: saline with Tween-80.
Setting [11] is: dose: 12.5 mg/kg/injection, schedule: Q01DX009 (ip), vehicle: saline with Tween-80.
The mark [12] stands for this setting: dose: 25.0 mg/kg/injection, schedule: Q01DX009 (ip), vehicle: saline with Tween-80.
[13] abbreviates: dose: 100.0 mg/kg/injection, schedule: Q01DX009 (ip), vehicle: saline with Tween-80.
Where [14] appears, read: dose: 100.0 mg/kg/injection, schedule: Q01DX009 (ip), vehicle: Klucel (hydroxypropylcellulose) (HPC).
Setting [15] is: dose: 200.0 mg/kg/injection, schedule: Q01DX009 (ip), vehicle: Klucel (hydroxypropylcellulose) (HPC).
Where [16] appears, read: dose: 50.0 mg/kg/injection, schedule: Q01DX009 (ip), vehicle: saline with Tween-80.

Several values for one entry are separate records, joined by “and”; a condition that tells them apart may be missing. Equal entries are not always repeated. Inconclusive results and toxic doses are left out.

As for `CCOc1nc(N)nc(C)c1N=Nc1ccc(C)cc1`, the T/C (dose: 60.0 mg/kg/injection, schedule: Q01DX005 (ip), vehicle: Klucel + Tween-80) is 110 % of control; the T/C (dose: 120.0 mg/kg/injection, schedule: Q01DX005 (ip), vehicle: Klucel + Tween-80) was 116 % of control; the T/C (dose: 240.0 mg/kg/injection, schedule: Q01DX005 (ip), vehicle: Klucel + Tween-80) is 113 % of control.
With `CC1=NN(C(=O)c2ccccn2)C(=O)C1N=Nc1ccc(S(=O)(=O)Nc2ncccn2)cc1` (stereo unspecified), the T/C is, setting by setting: (dose: 60.0 mg/kg/injection, schedule: Q01DX005 (ip), vehicle: saline with Tween-80) 102 % of control; (dose: 120.0 mg/kg/injection, schedule: Q01DX005 (ip), vehicle: saline with Tween-80) 105 % of control; (dose: 240.0 mg/kg/injection, schedule: Q01DX005 (ip), vehicle: saline with Tween-80) 94 % of control.
`CC1(C)CNC(=O)C2=C(O1)C(=O)OC2`: the T/C runs as follows: (dose: 100.0 mg/kg/injection, schedule: Q04DX002 (ip), vehicle: saline with Tween-80) 100 % of control; (dose: 200.0 mg/kg/injection, schedule: Q04DX002 (ip), vehicle: saline with Tween-80) 100 % of control; (dose: 400.0 mg/kg/injection, schedule: Q04DX002 (ip), vehicle: saline with Tween-80) 103 % of control.
With `CN(C)C=Nc1ccccc1`, the T/C is, setting by setting: under setting [1], 103 % of control; under setting [2], 103 % of control; under setting [3], 108 % of control.
In the case of `O=C(O)c1[nH]c(=O)[nH]c(=O)c1[N+](=O)[O-]`, the T/C by setting is: under setting [4], 93 % of control; (dose: 100.0 mg/kg/injection, schedule: Q01DX005 (ip), vehicle: Klucel (hydroxypropylcellulose) (HPC)) 98 % of control; (dose: 200.0 mg/kg/injection, schedule: Q01DX005 (ip), vehicle: Klucel (hydroxypropylcellulose) (HPC)) 98 % of control.
Take `N#CC1(Nc2ccccc2)CCCC1`: the T/C (dose: 3.13 mg/kg/injection, schedule: Q01DX009 (ip), vehicle: Klucel (hydroxypropylcellulose) (HPC)) is 104 % of control; the T/C under setting [5] is 104 % of control and 92 % of control and 96 % of control; the T/C under setting [6] is 100 % of control and 90 % of control and 98 % of control; the T/C under setting [7] is 100 % of control and 96 % of control; the T/C under setting [8] was 104 % of control.
For the molecule `CC(=O)OC1C(=O)OC(=O)C(OC(C)=O)C1OC(C)=O` (stereo unspecified), the T/C reads like this: under setting [1], 100 % of control; under setting [2], 93 % of control; under setting [3], 100 % of control.
Consider `O=[N+]([O-])c1ccc2c(c1)N=Cc1ccccc1NCCNc1ccccc1C=N2`, for which the T/C is 95 % of control under setting [1]; 87 % of control and 90 % of control under setting [2]; 92 % of control and 93 % of control under setting [3].
Turning to `CC(N)P(=O)(O)O` (stereo unspecified), the T/C by setting is: under setting [9], 100 % of control; under setting [1], 115 % of control; under setting [2], 104 % of control and 87 % of control; under setting [3], 106 % of control and 86 % of control.
Turning to `O=C(Nc1ccc(Br)cn1)c1sc2ccccc2c1Cl`, the T/C was 99 % of control under setting [10]; 98 % of control under setting [11]; 99 % of control under setting [12]; 92 % of control under setting [13]; 87 % of control (dose: 200.0 mg/kg/injection, schedule: Q01DX009 (ip), vehicle: saline with Tween-80).
As to `O=[N+]([O-])c1ccc(N=Nc2ccccc2)cc1`, the T/C was 109 % of control (dose: 100.0 mg/kg/injection, schedule: Q04DX003 (ip), vehicle: saline with Tween-80); 100 % of control (dose: 200.0 mg/kg/injection, schedule: Q04DX003 (ip), vehicle: saline with Tween-80); 100 % of control (dose: 400.0 mg/kg/injection, schedule: Q04DX003 (ip), vehicle: saline with Tween-80).
As for `CC(=O)Oc1cccnc1[N+](=O)[O-]`, the T/C was 103 % of control and 106 % of control (dose: 12.5 mg/kg/injection, schedule: Q01DX009 (ip), vehicle: saline); 100 % of control and 101 % of control under setting [9]; 102 % of control and 120 % of control and 94 % of control under setting [1]; 106 % of control and 108 % of control and 123 % of control under setting [2]; 105 % of control and 119 % of control under setting [3]; 105 % of control (dose: 400.0 mg/kg/injection, schedule: Q01DX009 (ip), vehicle: saline).
Turning to `COC1(C2COc3cc(OCc4ccccc4)ccc3C2=O)C=C2OCOC2=CC1=O` (stereo unspecified), the T/C (dose: 12.5 mg/kg/injection, schedule: Q01DX005 (ip), vehicle: Klucel (hydroxypropylcellulose) (HPC)) was 99 % of control; the T/C (dose: 25.0 mg/kg/injection, schedule: Q01DX005 (ip), vehicle: Klucel (hydroxypropylcellulose) (HPC)) is 96 % of control; the T/C under setting [4] is 89 % of control.
Take `COc1cccc2c1C(=O)c1c(O)c3c(c(O)c1C2=O)C[C@@](O)(C(=O)CO)C[C@@H]3OC1CC(N2CCCCC2)C(O)C(C)O1` (stereo partly specified): the T/C runs as follows: (dose: 0.78 mg/kg/injection, schedule: Q01DX009 (ip), vehicle: water) 151 % of control; (dose: 1.2 mg/kg/injection, schedule: Q04DX003 (ip), vehicle: water) 100 % of control; (dose: 1.56 mg/kg/injection, schedule: Q01DX009 (ip), vehicle: water) 184 % of control; (dose: 2.4 mg/kg/injection, schedule: Q04DX003 (ip), vehicle: water) 113 % of control; (dose: 3.13 mg/kg/injection, schedule: Q01DX009 (ip), vehicle: water) 190 % of control; (dose: 4.7 mg/kg/injection, schedule: Q04DX003 (ip), vehicle: water) 106 % of control. The T/C is, setting by setting: (dose: 9.4 mg/kg/injection, schedule: Q04DX003 (ip), vehicle: water) 155 % of control; (dose: 37.5 mg/kg/injection, schedule: Q04DX003 (ip), vehicle: water) 87 % of control.
`CSc1ccc(NC(=O)n2nnc3ccccc32)cc1`: the T/C by setting is: under setting [5], 103 % of control and 106 % of control; under setting [6], 102 % of control and 110 % of control; under setting [7], 100 % of control and 111 % of control; under setting [8], 105 % of control and 109 % of control and 120 % of control; under setting [14], 105 % of control and 117 % of control and 124 % of control; under setting [15], 106 % of control and 97 % of control.
On to `Cc1nn(C(=O)c2ccncc2)c(C)c1N=Nc1ccc(-c2ccc(N)cc2)cc1`, for which the T/C was 99 % of control under setting [8], 90 % of control under setting [14] and 90 % of control under setting [15].
`COC(=O)c1nc(N)nc(C(=O)OC)c1C(=O)c1ccc(F)cc1`: the T/C is, setting by setting: (dose: 60.0 mg/kg/injection, schedule: Q01DX005 (ip), vehicle: Klucel (hydroxypropylcellulose) (HPC)) 101 % of control; (dose: 120.0 mg/kg/injection, schedule: Q01DX005 (ip), vehicle: Klucel (hydroxypropylcellulose) (HPC)) 102 % of control.
With `CCOC(=O)N1Cc2cc3ccccc3nc2C1`, the T/C is 107 % of control under setting [10], 101 % of control under setting [11], 101 % of control under setting [12] and 108 % of control under setting [16].
In the case of `CCOC(=O)C1=C(C)NC(C)=C(C(=O)OCC)C1C`, the T/C is, setting by setting: under setting [2], 102 % of control; under setting [3], 89 % of control.
For the molecule `O=C(O)c1cccnn1`, the T/C is 90 % of control under setting [16] and 90 % of control under setting [13].
`O=c1cc(-c2ccc(OCc3ccccc3)c(-c3c(OCc4ccccc4)cc(OCc4ccccc4)c4c(=O)cc(-c5ccc(OCc6ccccc6)cc5)oc34)c2)oc2cc(OCc3ccccc3)cc(OCc3ccccc3)c12`: the T/C was 93 % of control (dose: 25.0 mg/kg/injection, schedule: Q01DX001 (ip), vehicle: saline with Tween-80); 89 % of control (dose: 50.0 mg/kg/injection, schedule: Q01DX001 (ip), vehicle: saline with Tween-80); 87 % of control (dose: 100.0 mg/kg/injection, schedule: Q01DX001 (ip), vehicle: saline with Tween-80); 89 % of control (dose: 200.0 mg/kg/injection, schedule: Q01DX001 (ip), vehicle: Klucel (hydroxypropylcellulose) (HPC)); 88 % of control (dose: 400.0 mg/kg/injection, schedule: Q01DX001 (ip), vehicle: Klucel (hydroxypropylcellulose) (HPC)).
On to `NC1=NC(c2c3ccccc3cc3ccccc23)N=C(Nc2cccc(Cl)c2)N1` (stereo unspecified), for which the T/C is, setting by setting: under setting [10], 107 % of control; under setting [11], 114 % of control; under setting [16], 95 % of control.
Consider `CSc1nc(Cl)c(Br)c(N2CC2)n1`, for which the T/C (dose: 50.0 mg/kg/injection, schedule: Q01DX005 (ip), vehicle: saline with Tween-80) is 100 % of control and the T/C (dose: 100.0 mg/kg/injection, schedule: Q01DX005 (ip), vehicle: saline with Tween-80) is 107 % of control.
With `COc1ccc2[nH]c3c(c2c1)CNCC3`, the T/C under setting [2] is 110 % of control and the T/C under setting [3] was 112 % of control.

(Values after PubChem BioAssay AID330 (DTP/NCI, 2004).)
